Test results as given in patent US20100267561A1, “HERBICIDAL PYRIDAZINONE DERIVATIVES” (priority 2007, published 2010).
Where two headings read alike, the source gives them in different places.

How the values were obtained:
Format in all cases: in vivo
[1] = system: barnyardgrass (Echinochloa crus-galli); assay: Test A pre-/postemergence plant response; details: for pest or weed control at 1000 g/ha: Echinochloa crus-galli, 240 h, 1000 g ai/ha, read-out: Plant response rating, Barnyardgrass
Procedure, shortened: (§1)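 Both pre- and postemergence treatment given concurrently; postemergence seedlings measured 2–10 cm at the one- to two-leaf stage. Visual injury, 0–100 scale versus untreated, at ~10 days.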

[2] = system: corn (Zea mays); assay: Test A pre-/postemergence plant response; details: for Corn plant response rating (crop injury, 0 = no effect, 100 = complete kill) at 1000 g/ha: Zea mays, 240 h, 1000 g ai/ha
Procedure, shortened: as §1

[3] = system: giant foxtail (Setaria faberi); assay: Test A pre-/postemergence plant response; details: for pest or weed control at 1000 g/ha: Setaria faberi, 240 h, 1000 g ai/ha, read-out: Plant response rating, Foxtail, Giant
Procedure, shortened: as §1

[4] = system: large crabgrass (Digitaria sanguinalis); assay: Test A pre-/postemergence plant response; details: for pest or weed control at 1000 g/ha: Digitaria sanguinalis, 240 h, 1000 g ai/ha, read-out: Plant response rating, Crabgrass, Large
Procedure, shortened: as §1

[5] = system: morningglory (Ipomoea coccinea); assay: Test A pre-/postemergence plant response
Procedure, shortened: as §1

[6] = system: pigweed (Amaranthus retroflexus); assay: Test A pre-/postemergence plant response; details: for pest or weed control at 1000 g/ha: Amaranthus retroflexus, 240 h, 1000 g ai/ha, read-out: Plant response rating, Pigweed
Procedure, shortened: as §1

[7] = system: velvetleaf (Abutilon theophrasti); assay: Test A pre-/postemergence plant response
Procedure, shortened: as §1

[8] = system: wheat (Triticum aestivum); assay: Test A pre-/postemergence plant response; details: for plant injury at 1000 g/ha: Triticum aestivum, 240 h, 1000 g ai/ha, read-out: Plant response rating, Wheat
Procedure, shortened: as §1

[9] = system: canarygrass (Phalaris minor); assay: Test B postemergence plant response; details: for Plant response rating, Canarygrass: Postemergence
Procedure, shortened: (§2)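 Compounds applied after emergence to 2–18 cm plants; response read visually 13–15 days later on 0 (none) to 100 (complete control); a dash marks no result.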

[10] = system: chickweed (Stellaria media); assay: Test B postemergence plant response; details: for Plant response rating, Chickweed: Postemergence
Procedure, shortened: as §2

[11] = system: windgrass (Apera spica-venti); assay: Test B postemergence plant response; details: for Plant response rating, Windgrass: Postemergence
Procedure, shortened: as §2

[12] = system: winter barley (Hordeum vulgare); assay: Test B postemergence plant response; details: for Plant response rating, Barley: Postemergence
Procedure, shortened: as §2

[13] = system: barnyardgrass (Echinochloa crus-galli); assay: Test B flooded paddy test plant response
Procedure, shortened: (§3)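 Rice, umbrella sedge, ducksalad and barnyardgrass at 2-leaf stage; pots flooded to 3 cm, compounds applied into paddy water, depth held throughout. Greenhouse 13 to 15 days, then visual rating vs untreated controls on 0–100 scale (0 no effect, 100 complete control); dash means no test result.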

[14] = system: umbrella sedge (Cyperus difformis); assay: Test B flooded paddy test plant response
Procedure, shortened: as §3

[15] = post-emergence, Postemergence, 0 to 100 scale, 0 no effect, 100 complete control
[16] = pre-emergence, Preemergence, 0 to 100 scale (0 no effect, 100 complete control)
[17] = Postemergence, 1000 g ai/ha, 0 to 100 scale, 0 no effect, 100 complete control
[18] = Preemergence, 1000 g ai/ha, 0 to 100 scale (0 no effect, 100 complete control)
[19] = 31 g ai/ha, scale 0 to 100, 0 no effect, 100 complete control
[20] = Postemergence, 31 g ai/ha, 0 to 100 scale (0 no effect, 100 complete control)
[21] = Postemergence, 125 g ai/ha, 0 to 100 scale, 0 no effect, 100 complete control
[22] = Preemergence, 31 g ai/ha, 0 to 100 scale, 0 is no effect, 100 is complete control
[23] = Preemergence, 125 g ai/ha, 0 to 100 scale (0 no effect, 100 complete control)
[24] = 8 g ai/ha, postemergence, 0-100 scale
[25] = 62 g ai/ha, scale 0 to 100, 0 no effect, 100 complete control
[26] = Flood (flooded paddy test), 62 g ai/ha, scale 0 to 100, 0 no effect, 100 complete control
[27] = Flood (flooded paddy test), 125 g ai/ha, scale 0 to 100, 0 no effect, 100 complete control
[28] = Flood (flooded paddy test), 250 g ai/ha, scale 0 to 100, 0 no effect, 100 complete control
[29] = Flood, 31 g ai/ha, scale 0 to 100

Cc1cc(-c2ccc(C(F)(F)F)cc2)nn1-c1c(O)cnn(C)c1=O [Compound 1, 5-hydroxy-2-methyl-4-[5-methyl-3-[4-(trifluoromethyl)phenyl]-1H-pyrazol-1-yl]-3(2H)-pyridazinone]
pest or weed control at 1000 g/ha [1, 15]: 100%
pest or weed control at 1000 g/ha [1, 16]: 100%
Corn plant response rating (crop injury, 0 = no effect, 100 = complete kill) at 1000 g/ha [2, 15]: 100%
Corn plant response rating (crop injury, 0 = no effect, 100 = complete kill) at 1000 g/ha [2, 16]: 100%
pest or weed control at 1000 g/ha [3, 15]: 100%
pest or weed control at 1000 g/ha [3, 16]: 100%
pest or weed control at 1000 g/ha [4, 15]: 100%
pest or weed control at 1000 g/ha [4, 16]: 90%
Plant response rating, Morningglory [5, 17]: 60
Plant response rating, Morningglory [5, 18]: 0
pest or weed control at 1000 g/ha [6, 15]: 30%
pest or weed control at 1000 g/ha [6, 16]: 20%
Plant response rating, Velvetleaf [7, 17]: 60
Plant response rating, Velvetleaf [7, 18]: 0
plant injury at 1000 g/ha [8, 15]: 100%
plant injury at 1000 g/ha [8, 16]: 90%
Plant response rating, Canarygrass [9, 19]: 0
Plant response rating, Canarygrass ([9]; 62 g ai/ha, scale 0 to 100): 0
Plant response rating, Canarygrass ([9]; 125 g ai/ha, scale 0 to 100): 0
Plant response rating, Canarygrass ([9]; 250 g ai/ha, scale 0 to 100): 40
Plant response rating, Chickweed [10, 19]: 0
Plant response rating, Chickweed ([10]; 62 g ai/ha, scale 0 to 100): 0
Plant response rating, Chickweed ([10]; 125 g ai/ha, scale 0 to 100): 0
Plant response rating, Chickweed ([10]; 250 g ai/ha, scale 0 to 100): 5
Plant response rating, Windgrass [11, 19]: 95
Plant response rating, Windgrass ([11]; 62 g ai/ha, scale 0 to 100): 100
Plant response rating, Windgrass ([11]; 125 g ai/ha, scale 0 to 100): 100
Plant response rating, Windgrass ([11]; 250 g ai/ha, scale 0 to 100): 100
Plant response rating, Barley [12, 19]: 0
Plant response rating, Barley ([12]; 62 g ai/ha, scale 0 to 100): 0
Plant response rating, Barley ([12]; 125 g ai/ha, scale 0 to 100): 0
Plant response rating, Barley ([12]; 250 g ai/ha, scale 0 to 100): 30
pest or weed control at 62 g/ha ([13]; Echinochloa crus-galli, Flood (flooded paddy test), 62 g ai/ha, scale 0 to 100, 0 no effect, 100 complete control, read-out: Plant response rating, Barnyardgrass): 0%
pest or weed control at 125 g/ha ([13]; Echinochloa crus-galli, Flood (flooded paddy test), 125 g ai/ha, scale 0 to 100, 0 no effect, 100 complete control, read-out: Plant response rating, Barnyardgrass): 20%
pest or weed control at 250 g/ha ([13]; Echinochloa crus-galli, Flood (flooded paddy test), 250 g ai/ha, scale 0 to 100, 0 no effect, 100 complete control, read-out: Plant response rating, Barnyardgrass): 60%
pest or weed control at 31 g/ha ([13]; Echinochloa crus-galli, Flood, 31 g ai/ha, scale 0 to 100, read-out: Plant response rating, Barnyardgrass): 0%
pest or weed control at 62 g/ha ([14]; Cyperus difformis, Flood (flooded paddy test), 62 g ai/ha, scale 0 to 100, 0 no effect, 100 complete control, read-out: Plant response rating, Sedge, Umbrella): 40%
pest or weed control at 125 g/ha ([14]; Cyperus difformis, Flood (flooded paddy test), 125 g ai/ha, scale 0 to 100, 0 no effect, 100 complete control, read-out: Plant response rating, Sedge, Umbrella): 40%
pest or weed control at 250 g/ha ([14]; Cyperus difformis, Flood (flooded paddy test), 250 g ai/ha, scale 0 to 100, 0 no effect, 100 complete control, read-out: Plant response rating, Sedge, Umbrella): 60%
pest or weed control at 31 g/ha ([14]; Cyperus difformis, Flood, 31 g ai/ha, scale 0 to 100, read-out: Plant response rating, Sedge, Umbrella): 0%

Cc1cc(-c2ccc(Cl)cc2)nn1-c1c(OC(=O)OCC(C)C)cnn(C)c1=O [Compound 57]
Plant response rating, Barnyardgrass [1, 20]: 0
Plant response rating, Barnyardgrass [1, 21]: 80
Plant response rating, Barnyardgrass [1, 22]: 60
Plant response rating, Barnyardgrass [1, 23]: 100
Plant response rating, Corn [2, 20]: 0
Plant response rating, Corn [2, 21]: 60
Plant response rating, Corn [2, 22]: 0
Plant response rating, Corn [2, 23]: 50
Plant response rating, Foxtail, Giant [3, 20]: 0
Plant response rating, Foxtail, Giant [3, 21]: 90
Plant response rating, Foxtail, Giant [3, 22]: 90
Plant response rating, Foxtail, Giant [3, 23]: 100
Plant response rating, Crabgrass, Large [4, 20]: 0
Plant response rating, Crabgrass, Large [4, 21]: 80
Plant response rating, Crabgrass, Large [4, 22]: 50
Plant response rating, Crabgrass, Large [4, 23]: 100
Plant response rating, Morningglory [5, 20]: 0
Plant response rating, Morningglory [5, 21]: 0
Plant response rating, Morningglory [5, 22]: 0
Plant response rating, Morningglory [5, 23]: 0
Plant response rating, Pigweed [6, 20]: 0
Plant response rating, Pigweed [6, 21]: 0
Plant response rating, Pigweed [6, 22]: 0
Plant response rating, Pigweed [6, 23]: 0
Plant response rating, Velvetleaf [7, 20]: 0
Plant response rating, Velvetleaf [7, 21]: 0
Plant response rating, Velvetleaf [7, 22]: 0
Plant response rating, Velvetleaf [7, 23]: 0
Plant response rating, Wheat [8, 20]: 0
Plant response rating, Wheat [8, 21]: 50
Plant response rating, Wheat [8, 22]: 0
Plant response rating, Wheat [8, 23]: 70
Canarygrass plant response rating [9, 24]: 0
Plant response rating, Canarygrass ([9]; 16 g ai/ha, scale 0 to 100): 0
Plant response rating, Canarygrass ([9]; 31 g ai/ha, scale 0 to 100): 0
Plant response rating, Canarygrass [9, 25]: 60
Chickweed plant response rating [10, 24]: 0
Plant response rating, Chickweed ([10]; 16 g ai/ha, scale 0 to 100): 0
Plant response rating, Chickweed ([10]; 31 g ai/ha, scale 0 to 100): 0
Plant response rating, Chickweed [10, 25]: 0
Windgrass plant response rating [11, 24]: 50
Plant response rating, Windgrass ([11]; 16 g ai/ha, scale 0 to 100): 50
Plant response rating, Windgrass ([11]; 31 g ai/ha, scale 0 to 100): 55
Plant response rating, Windgrass [11, 25]: 70
Barley plant response rating [12, 24]: 0
Plant response rating, Barley ([12]; 16 g ai/ha, scale 0 to 100, 0 no effect, 100 complete control): 0
Plant response rating, Barley [12, 19]: 0
Plant response rating, Barley [12, 25]: 40
Plant response rating, Barnyardgrass [13, 26]: 0
Plant response rating, Barnyardgrass [13, 27]: 0
Plant response rating, Barnyardgrass [13, 28]: 0
Plant response rating, Barnyardgrass [13, 29]: 0
Plant response rating, Sedge, Umbrella [14, 26]: 65
Plant response rating, Sedge, Umbrella [14, 27]: 75
Plant response rating, Sedge, Umbrella [14, 28]: 80
Plant response rating, Sedge, Umbrella [14, 29]: 45
